Source: the supplement of paper PMC13380429

Columns and labels:
Conditions in all cases: 72 h
U2OS [1] = test: cell viability relative to DMSO; higher = less toxic
Caco-2 [2] = test: as above
HepG2 [3] = test: as above
Vero E6 [4] = test: as above
Calu-3 [5] = test: as above
U2OS [6] = test: drug sensitivity score (DSS) for viability; higher = more toxic; extreme values may be limits of the assay
Caco-2 [7] = test: as above
HepG2 [8] = test: as above
Vero E6 [9] = test: as above
Calu-3 [10] = test: as above
U2OS [11] = test: relative viability EC50 (midpoint between 100% and the lowest measured viability); higher = less toxic
Caco-2 [12] = test: as above
HepG2 [13] = test: as above
Vero E6 [14] = test: as above
Calu-3 [15] = test: as above

Compound | cell viability (U2OS [1]; 1 nM) [%] | cell viability (U2OS [1]; 10 nM) [%] | cell viability (U2OS [1]; 100 nM) [%] | cell viability (U2OS [1]; 1000 nM) [%] | cell viability (U2OS [1]; 10000 nM) [%] | cell viability (Caco-2 [2]; 1 nM) [%] | cell viability (Caco-2 [2]; 10 nM) [%] | cell viability (Caco-2 [2]; 100 nM) [%] | cell viability (Caco-2 [2]; 1000 nM) [%] | cell viability (Caco-2 [2]; 10000 nM) [%] | cell viability (HepG2 [3]; 1 nM) [%] | cell viability (HepG2 [3]; 10 nM) [%] | cell viability (HepG2 [3]; 100 nM) [%] | cell viability (HepG2 [3]; 1000 nM) [%] | cell viability (HepG2 [3]; 10000 nM) [%] | cell viability (Vero E6 [4]; 1 nM) [%] | cell viability (Vero E6 [4]; 10 nM) [%] | cell viability (Vero E6 [4]; 100 nM) [%] | cell viability (Vero E6 [4]; 1000 nM) [%] | cell viability (Vero E6 [4]; 10000 nM) [%] | cell viability (Calu-3 [5]; 1 nM) [%] | cell viability (Calu-3 [5]; 10 nM) [%] | cell viability (Calu-3 [5]; 100 nM) [%] | cell viability (Calu-3 [5]; 1000 nM) [%] | cell viability (Calu-3 [5]; 10000 nM) [%] | drug sensitivity score (U2OS [6]) | drug sensitivity score (Caco-2 [7]) | drug sensitivity score (HepG2 [8]) | drug sensitivity score (Vero E6 [9]) | drug sensitivity score (Calu-3 [10]) | relative viability EC50 (U2OS [11]) [µM] | relative viability EC50 (Caco-2 [12]) [µM] | relative viability EC50 (HepG2 [13]) [µM] | relative viability EC50 (Vero E6 [14]) [µM] | relative viability EC50 (Calu-3 [15]) [µM]
CC[C@@H]1/C=C(\C)C[C@H](C)C[C@H](OC)[C@H]2O[C@@](O)(C(=O)C(=O)N3CCCC[C@H]3C(=O)O[C@H](/C(C)=C/[C@@H]3CC[C@@H](O)[C@H](OC)C3)[C@H](C)[C@@H](O)CC1=O)[C@H](C)C[C@@H]2OC [ascomycin] | 96 | 104 | 97.8 | 98.4 | 95.2 | 117 | 97.8 | 95 | 100 | 84.5 | 124 | 109 | 112 | 96 | 104 | 107 | 100 | 98.1 | 93.5 | 102 | 98.3 | 98.9 | 90.8 | 107 | 107 | 0 | 0.2 | 0 | 0 | 0 | > 10 | > 10 | > 10 | > 10 | > 10
NC(=O)N1C(=O)/C(=C(\O)c2cccs2)c2cc(Cl)ccc21 [tenidap] | 99.6 | 98.3 | 93.3 | 102 | 99 | 98.3 | 94.6 | 97.1 | 94 | 91.6 | 98.4 | 110 | 98.8 | 106 | 99.9 | 102 | 103 | 94.6 | 93.1 | 99 | 109 | 97 | 85.4 | 108 | 99.9 | 0 | 0 | 0 | 0 | 0 | > 10 | > 10 | > 10 | > 10 | > 10
O=c1ccc2cc(O[C@@H]3O[C@H](CO)[C@@H](O)[C@H](O)[C@H]3O)c(O)cc2o1 [esculin] | 100 | 99.4 | 96.8 | 103 | 98.2 | 93 | 105 | 91.7 | 102 | 99.6 | 104 | 97.3 | 97.4 | 101 | 96 | 105 | 98.8 | 102 | 95.4 | 104 | 95.4 | 101 | 91 | 96 | 107 | 0 | 0 | 0 | 0 | 0 | > 10 | > 10 | > 10 | > 10 | > 10
O=C(Nc1ccccc1F)N[C@H]1N=C(c2ccccc2)c2ccccc2NC1=O [RSV604] | 98.5 | 98.5 | 98.5 | 105 | 100 | 92.5 | 107 | 97.2 | 102 | 85.2 | 109 | 110 | 95.9 | 96.5 | 109 | 95.1 | 101 | 95.8 | 95.3 | 92 | 94.2 | 90.5 | 99.2 | 102 | 89.8 | 0 | 0.1 | 0 | 0 | 0 | > 10 | > 10 | > 10 | > 10 | > 10
O=C1OC(c2ccc(O)cc2)(c2ccc(O)cc2)c2ccccc21 [phenolphthalein] | 99.1 | 96.1 | 99.7 | 97 | 105 | 86.3 | 77.8 | 99.7 | 93.2 | 102 | 131 | 76.1 | 112 | 105 | 119 | 95.8 | 93.2 | 87.4 | 95.3 | 107 | 96.1 | 94.8 | 94.2 | 102 | 102 | 0 | 0 | 0 | 0 | 0 | > 10 | > 10 | > 10 | > 10 | > 10
